Measured values taken from patent US10251395B2, “Substituted furano-/thienocycloalkylamino-2-pyrimidine derivatives and use thereof for controlling undesired plant growth” (Bayer CropScience Aktiengesellschaft, priority 2015, dated 2019).
Values belong to the molecule of their own block, whether it stands above or below them.

What was measured:
logP (HCOOH) = assay type: physicochemical; conditions: HCOOH (formic acid)
Description: Table 2 (physicochemical characterization of selected synthesis examples)

Ipomoea purpurea [1] = experiment: Post-emergence herbicidal effect; assay type: in vivo; conditions: assessed visually after about 3 weeks vs untreated controls
Summary of the method: (§1)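 Ratings are visual percentages taken around 3 weeks after treatment, compared with untreated plants. Treatment consisted of an aqueous spray of WP or EC formulations, with 0.2% wetting agent, onto one-leaf-stage weeds raised from seed in sandy loam.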

Echinochloa crus-galli [2] = experiment: Post-emergence herbicidal effect; assay type: in vivo; conditions: assessed visually after about 3 weeks vs untreated controls
Summary of the method: as §1

Lolium multiflorum [3] = experiment: Post-emergence herbicidal effect; assay type: in vivo; conditions: 320 g/ha, assessed visually after about 3 weeks vs untreated controls
Summary of the method: as §1

Matricaria inodora [4] = experiment: Post-emergence herbicidal effect; assay type: in vivo; conditions: assessed visually after about 3 weeks vs untreated controls
Summary of the method: as §1

Polygonum convolvulus [5] = experiment: Post-emergence herbicidal effect; assay type: in vivo; conditions: assessed visually after about 3 weeks vs untreated controls
Summary of the method: as §1

Alopecurus myosuroides [6] = experiment: Post-emergence herbicidal effect; assay type: in vivo; conditions: 320 g/ha, assessed visually after about 3 weeks vs untreated controls
Summary of the method: as §1

Viola tricolor [7] = experiment: Post-emergence herbicidal effect; assay type: in vivo; conditions: assessed visually after about 3 weeks vs untreated controls
Summary of the method: as §1

Abutilon theophrasti [8] = experiment: Post-emergence herbicidal effect; assay type: in vivo; conditions: assessed visually after about 3 weeks vs untreated controls
Summary of the method: as §1

Stellaria media [9] = experiment: Post-emergence herbicidal effect; assay type: in vivo; conditions: assessed visually after about 3 weeks vs untreated controls
Summary of the method: as §1

Amaranthus retroflexus [10] = experiment: Post-emergence herbicidal effect; assay type: in vivo; conditions: 320 g/ha, assessed visually after about 3 weeks vs untreated controls
Summary of the method: as §1

Avena fatua [11] = experiment: Post-emergence herbicidal effect; assay type: in vivo; conditions: assessed visually after about 3 weeks vs untreated controls
Summary of the method: as §1

Setaria viridis [12] = experiment: Post-emergence herbicidal effect; assay type: in vivo; conditions: assessed visually after about 3 weeks vs untreated controls
Summary of the method: as §1

Veronica persica [13] = experiment: Post-emergence herbicidal effect; assay type: in vivo; conditions: 80 g/ha, assessed visually after about 3 weeks vs untreated controls
Summary of the method: as §1

Ipomoea purpurea [14] = experiment: Pre-emergence herbicidal effect; assay type: in vivo; conditions: scored visually after 3 weeks
Summary of the method: (§2)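 Seeds in sandy loam were covered with soil and treated pre-emergence with WP or EC formulations applied as aqueous spray with 0.2% wetting agent. Percent damage was scored visually after 3 weeks relative to untreated controls.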

Echinochloa crus-galli [15] = experiment: Pre-emergence herbicidal effect; assay type: in vivo; conditions: scored visually after 3 weeks
Summary of the method: as §2

Lolium multiflorum [16] = experiment: Pre-emergence herbicidal effect; assay type: in vivo; conditions: Dosage 320 g/ha, scored visually after 3 weeks
Summary of the method: as §2

Matricaria inodora [17] = experiment: Pre-emergence herbicidal effect; assay type: in vivo; conditions: scored visually after 3 weeks
Summary of the method: as §2

Cyperus esculentus = experiment: Pre-emergence herbicidal effect; assay type: in vivo; conditions: Dosage 320 g/ha, scored visually after 3 weeks
Summary of the method: as §2

Polygonum convolvulus [18] = experiment: Pre-emergence herbicidal effect; assay type: in vivo; conditions: scored visually after 3 weeks
Summary of the method: as §2

Alopecurus myosuroides [19] = experiment: Pre-emergence herbicidal effect; assay type: in vivo; conditions: scored visually after 3 weeks
Summary of the method: as §2

Viola tricolor [20] = experiment: Pre-emergence herbicidal effect; assay type: in vivo; conditions: scored visually after 3 weeks
Summary of the method: as §2

Abutilon theophrasti [21] = experiment: Pre-emergence herbicidal effect; assay type: in vivo; conditions: scored visually after 3 weeks
Summary of the method: as §2

Stellaria media [22] = experiment: Pre-emergence herbicidal effect; assay type: in vivo; conditions: scored visually after 3 weeks
Summary of the method: as §2

Amaranthus retroflexus [23] = experiment: Pre-emergence herbicidal effect; assay type: in vivo; conditions: scored visually after 3 weeks
Summary of the method: as §2

Avena fatua [24] = experiment: Pre-emergence herbicidal effect; assay type: in vivo; conditions: Dosage 320 g/ha, scored visually after 3 weeks
Summary of the method: as §2

Setaria viridis [25] = experiment: Pre-emergence herbicidal effect; assay type: in vivo; conditions: scored visually after 3 weeks
Summary of the method: as §2

Veronica persica [26] = experiment: Pre-emergence herbicidal effect; assay type: in vivo; conditions: scored visually after 3 weeks
Summary of the method: as §2

melting point: 182.6 °C
chromatographic logP (logP (HCOOH)): 2.23
Structure (SMILES): Cc1cc2c(o1)CC(C)(C)CC2Nc1ncc(C(F)(F)F)c(N)n1 (centres unmarked) [compound 21, 5-(Trifluoromethyl)-N2-(2,6,6-trimethyl-4,5,6,7-tetrahydro-1-benzofuran-4-yl)pyrimidine-2,4-diamine]

chromatographic logP (logP (HCOOH)): 2.62
Structure (SMILES): Cc1cc2c(s1)CCC[C@H]2Nc1ncc(C(F)(F)F)c(N)n1 [compound 47, N2-[(4R)-2-Methyl-4,5,6,7-tetrahydrobenzothiophen-4-yl]-5-(trifluoromethyl)pyrimidine-2,4-diamine]
post-emergence efficacy PHBPU (Ipomoea purpurea [1]; 80 g/ha): 100%
post-emergence efficacy PHBPU (Ipomoea purpurea [1]; 320 g/ha): 100%
post-emergence efficacy ECHCG (Echinochloa crus-galli [2]; 80 g/ha): 100%
post-emergence efficacy ECHCG (Echinochloa crus-galli [2]; 320 g/ha): 100%
post-emergence efficacy LOLMU (Lolium multiflorum [3]): 80%
post-emergence efficacy MATIN (Matricaria inodora [4]; 80 g/ha): 90%
post-emergence efficacy MATIN (Matricaria inodora [4]; 320 g/ha): 100%
post-emergence efficacy POLCO (Polygonum convolvulus [5]; 80 g/ha): 80%
post-emergence efficacy POLCO (Polygonum convolvulus [5]; 320 g/ha): 80%
post-emergence efficacy ALOMY (Alopecurus myosuroides [6]): 100%
post-emergence efficacy VIOTR (Viola tricolor [7]; 80 g/ha): 100%
post-emergence efficacy VIOTR (Viola tricolor [7]; 320 g/ha): 100%
post-emergence efficacy ABUTH (Abutilon theophrasti [8]; 80 g/ha): 90%
post-emergence efficacy ABUTH (Abutilon theophrasti [8]; 320 g/ha): 90%
post-emergence efficacy STEME (Stellaria media [9]; 80 g/ha): 100%
post-emergence efficacy STEME (Stellaria media [9]; 320 g/ha): 100%
post-emergence efficacy AMARE (Amaranthus retroflexus [10]): 90%
post-emergence efficacy AVEFA (Avena fatua [11]; 80 g/ha): 100%
post-emergence efficacy AVEFA (Avena fatua [11]; 320 g/ha): 90%
post-emergence efficacy SETVI (Setaria viridis [12]; 80 g/ha): 90%
post-emergence efficacy SETVI (Setaria viridis [12]; 320 g/ha): 90%
post-emergence efficacy VERPE (Veronica persica [13]): 100%
PHBPU pre-emergence efficacy (herbicidal activity) (Ipomoea purpurea [14]; Dosage 80 g/ha): 100%
PHBPU pre-emergence efficacy (herbicidal activity) (Ipomoea purpurea [14]; Dosage 320 g/ha): 100%
ECHCG pre-emergence efficacy (herbicidal activity) (Echinochloa crus-galli [15]; Dosage 80 g/ha): 100%
ECHCG pre-emergence efficacy (herbicidal activity) (Echinochloa crus-galli [15]; Dosage 320 g/ha): 100%
LOLMU pre-emergence efficacy (herbicidal activity) (Lolium multiflorum [16]): 100%
MATIN pre-emergence efficacy (herbicidal activity) (Matricaria inodora [17]; Dosage 80 g/ha): 100%
MATIN pre-emergence efficacy (herbicidal activity) (Matricaria inodora [17]; Dosage 320 g/ha): 100%
CYPES pre-emergence efficacy (herbicidal activity) (Cyperus esculentus): 80%
POLCO pre-emergence efficacy (herbicidal activity) (Polygonum convolvulus [18]; Dosage 80 g/ha): 100%
POLCO pre-emergence efficacy (herbicidal activity) (Polygonum convolvulus [18]; Dosage 320 g/ha): 100%
ALOMY pre-emergence efficacy (herbicidal activity) (Alopecurus myosuroides [19]; Dosage 80 g/ha): 80%
ALOMY pre-emergence efficacy (herbicidal activity) (Alopecurus myosuroides [19]; Dosage 320 g/ha): 100%
VIOTR pre-emergence efficacy (herbicidal activity) (Viola tricolor [20]; Dosage 80 g/ha): 100%
VIOTR pre-emergence efficacy (herbicidal activity) (Viola tricolor [20]; Dosage 320 g/ha): 100%
ABUTH pre-emergence efficacy (herbicidal activity) (Abutilon theophrasti [21]; Dosage 80 g/ha): 80%
ABUTH pre-emergence efficacy (herbicidal activity) (Abutilon theophrasti [21]; Dosage 320 g/ha): 100%
STEME pre-emergence efficacy (herbicidal activity) (Stellaria media [22]; Dosage 80 g/ha): 100%
STEME pre-emergence efficacy (herbicidal activity) (Stellaria media [22]; Dosage 320 g/ha): 100%
AMARE pre-emergence efficacy (herbicidal activity) (Amaranthus retroflexus [23]; Dosage 80 g/ha): 100%
AMARE pre-emergence efficacy (herbicidal activity) (Amaranthus retroflexus [23]; Dosage 320 g/ha): 100%
AVEFA pre-emergence efficacy (herbicidal activity) (Avena fatua [24]): 100%
SETVI pre-emergence efficacy (herbicidal activity) (Setaria viridis [25]; Dosage 80 g/ha): 100%
SETVI pre-emergence efficacy (herbicidal activity) (Setaria viridis [25]; Dosage 320 g/ha): 100%
VERPE pre-emergence efficacy (herbicidal activity) (Veronica persica [26]; Dosage 80 g/ha): 100%
VERPE pre-emergence efficacy (herbicidal activity) (Veronica persica [26]; Dosage 320 g/ha): 100%
